# From article PMC11290450, “Isocyanides inhibit bacterial pathogens by covalent targeting of essential metabolic enzymes” (Chemical Science, 2024)
# How the values were obtained:
# [1] = molecular target: T1, glutamine–fructose-6-phosphate aminotransferase (GlmS) (Staphylococcus aureus, UniProt Q2FWA0); assay: GDH-coupled glutaminase assay (turnover reduced to about […] at […]); type: biochemical; settings: read-out: % residual turnover at 100 μM
# T1 construct: recombinant wild-type GlmS
# E. coli K12 [2] = test system: T2, E. coli K12; assay: microbe, parasite or virus in culture; parameters: broth microdilution MIC, visible growth (turbidity or pellet); settings: Escherichia coli, K12, 20 h
# T2 construct: K12
# Experimental: (§1) faecalis, E. faecium. S. epidermidis, S. pyogenes and S. pneumonia strains were cultivated in brain heart infusion medium (BHB, 7.5 g/L brain infusion, 10 g/L heart infusion, 10 g/L casein peptone, 5 g/L NaCl, 2.5 g/L Na2HPO4, 2 g/L glucose). Cell culture Cell culture media and supplements were purchased from Merck. HeLa cells were cultured in Dulbecco’s Modified Eagle Medium (DMEM, high glucose, 4.5 g/L) supplemented with 10% fetal bovine serum (FBS) and 2 mM L-glutamine at 37 °C in a 5% CO2 atmosphere. Accutase (Merck) was used for cell detachment. Minimum inhibitory concentration (MIC) The minimum inhibitory concentration (MIC) was determined by using the broth microdilution assay. 1 µL of compound stock solution in DMSO was pipetted to the wells of row 1 of a sterile flat bottom 96-well plate containing 100 µL growth medium and thoroughly mixed. Subsequently, a 1:1 serial dilution was performed in the growth medium from row 1 to row 10. […] Plates were incubated for 20 h (37 °C, 200 rpm; for Streptococcus pneumoniae DSM30104 and Streptococcus pyogenes ATCC700294: 5% CO2 atmosphere, 37 °C without shaking), and the dilution series were analyzed for microbial growth, indicated by turbidity and/or a pellet. […] MIC values were determined in technical triplicates and confirmed in two or three independent biological experiments. […]
# S. aureus USA300 Lac = test system: T3, S. aureus USA300 Lac; assay: microbe, parasite or virus in culture; parameters: broth microdilution MIC, visible growth (turbidity or pellet); settings: Staphylococcus aureus, USA300, 20 h
# T3 construct: USA300 LAC
# Experimental: as §1
# cytochrome P450 3A4 [3] = molecular target: T4, cytochrome P450 3A4 (Homo sapiens, UniProt P08684); assay: CYP inhibition assay (Table S3); type: biochemical
# T4 construct: gene CYP3A4
# cytochrome P450 1A2 [4] = molecular target: T5, cytochrome P450 1A2 (Homo sapiens, UniProt P05177); assay: biochemical; parameters: CYP inhibition in human liver microsomes, conversion of isoform-specific substrates; settings: substrate phenacetin; liver microsomes
# T5 construct: gene CYP1A2
# Experimental: (§2) To cover a broad range of structurally diverse compounds, we gathered commercially available primary, secondary, tertiary, vinyl and aromatic [compound left out] for antibacterial testing (Table S1 ^†). […] The minimum inhibitory concentration (MIC) of forty-two compounds was determined in Gram-positive Staphylococcus aureus and Gram-negative Escherichia coli cells up to 50 μM. […] The compound was tested against a panel of Gram-positive and Gram-negative pathogens. Although no antibiotic effects against Gram-negative strains were observed, Bacillus subtilis, Listeria monocytogenes, Staphylococcus epidermidis, and Streptococcus pneumoniae could be inhibited at low micromolar concentrations of I16 (Table S2 ^†). […] This was further corroborated by evaluation I16 in four different human cytochrome P450 enzymes (CYPs).
# cytochrome P450 2D6 [5] = molecular target: T6, cytochrome P450 2D6 (Homo sapiens, UniProt P10635); assay: biochemical; parameters: CYP inhibition in human liver microsomes, conversion of isoform-specific substrates; settings: substrate dextromethorphan; liver microsomes
# T6 construct: gene CYP2D6
# Experimental: as §2
# cytochrome P450 3A4 [6] = molecular target: T4, cytochrome P450 3A4; assay: biochemical; parameters: CYP inhibition in human liver microsomes, conversion of isoform-specific substrates; settings: substrate midazolam; liver microsomes
# Experimental: as §2
# cytochrome P450 2C9 [7] = molecular target: T7, cytochrome P450 2C9 (Homo sapiens, UniProt P11712); assay: biochemical; parameters: CYP inhibition in human liver microsomes, conversion of isoform-specific substrates; settings: substrate diclofenac; liver microsomes
# T7 construct: gene CYP2C9
# Experimental: as §2
# cytochrome P450 2C9 [8] = molecular target: T7, cytochrome P450 2C9; assay: CYP inhibition assay (Table S3); type: biochemical
# [9] = molecular target: T1, glutamine–fructose-6-phosphate aminotransferase (GlmS); assay: GDH-coupled glutaminase assay; intact protein MS (+[…] Da, truncated adduct); competitive gel-based IA-alkyne labeling; isoDTB-ABPP; type: biochemical
# cytochrome P450 1A2 [10] = molecular target: T5, cytochrome P450 1A2; assay: CYP inhibition assay (Table S3); type: biochemical
# B. subtilis 168 = test system: T8, B. subtilis 168; assay: microbe, parasite or virus in culture; parameters: broth microdilution MIC, visible growth (turbidity or pellet); settings: Bacillus subtilis, 168, 20 h
# T8 construct: 168
# Experimental: (§3) faecalis, E. faecium. S. epidermidis, S. pyogenes and S. pneumonia strains were cultivated in brain heart infusion medium (BHB, 7.5 g/L brain infusion, 10 g/L heart infusion, 10 g/L casein peptone, 5 g/L NaCl, 2.5 g/L Na2HPO4, 2 g/L glucose). Cell culture Cell culture media and supplements were purchased from Merck. HeLa cells were cultured in Dulbecco’s Modified Eagle Medium (DMEM, high glucose, 4.5 g/L) supplemented with 10% fetal bovine serum (FBS) and 2 mM L-glutamine at 37 °C in a 5% CO2 atmosphere. Accutase (Merck) was used for cell detachment. Minimum inhibitory concentration (MIC) The minimum inhibitory concentration (MIC) was determined by using the broth microdilution assay. 1 µL of compound stock solution in DMSO was pipetted to the wells of row 1 of a sterile flat bottom 96-well plate containing 100 µL growth medium and thoroughly mixed. Subsequently, a 1:1 serial dilution was performed in the growth medium from row 1 to row 10. 50 µL of bacterial suspension (1:10,000 dilution of an overnight culture in the respective growth medium) was added to each well containing compound and the growth control (row 11). A sterile control containing only medium was included (row 12). The final volume was 100 µL per well. Plates were incubated for 20 h (37 °C, 200 rpm; […] ATCC700294: 5% CO2 atmosphere, 37 °C without shaking), and the dilution series were analyzed for microbial growth, indicated by turbidity and/or a pellet. The lowest concentration in the dilution series at which no growth of bacteria could be observed was defined as the MIC of the compound. MIC values were determined in technical triplicates and confirmed in two or three independent biological experiments. The [compound left out] library was screened once in technical triplicates. The MIC is reported as mean of technical triplicates. If the MIC varied between biological replicates, concentration ranges are indicated.
# P. aeruginosa PAO1 = test system: T9, P. aeruginosa PAO1; assay: microbe, parasite or virus in culture; parameters: broth microdilution MIC, visible growth (turbidity or pellet); settings: Pseudomonas aeruginosa, PAO1, 20 h
# T9 construct: PAO1
# Experimental: as §3
# S. aureus USA300 LAC J2 = test system: T10, S. aureus USA300 LAC J2; assay: microbe, parasite or virus in culture; parameters: broth microdilution MIC, visible growth (turbidity or pellet); settings: Staphylococcus aureus, USA300, 20 h
# T10 construct: USA300 LAC JE2
# Experimental: as §3
# E. coli UTI89 = test system: T11, E. coli UTI89; assay: microbe, parasite or virus in culture; parameters: broth microdilution MIC, visible growth (turbidity or pellet); settings: Escherichia coli, UTI89, 20 h
# T11 construct: UTI89
# Experimental: as §3
# S. pneumoniae DSM 20567 = test system: T12, S. pneumoniae DSM 20567; assay: microbe, parasite or virus in culture; parameters: broth microdilution MIC, visible growth (turbidity or pellet); settings: Streptococcus pneumoniae, DSM20567, 20 h
# T12 construct: DSM 20567
# Experimental: as §3
# K. pneumoniae DSM 30104 = test system: T13, K. pneumoniae DSM 30104; assay: microbe, parasite or virus in culture; parameters: broth microdilution MIC, visible growth (turbidity or pellet); settings: Klebsiella pneumoniae, DSM30104, 20 h
# T13 construct: DSM 30104
# Experimental: as §3
# E. faecium DSM17050 = test system: T14, E. faecium DSM17050; assay: microbe, parasite or virus in culture; parameters: broth microdilution MIC, visible growth (turbidity or pellet); settings: Enterococcus faecium, DSM17050, 20 h
# T14 construct: DSM 17050
# Experimental: as §3
# S. epidermidis RP62 A = test system: T15, S. epidermidis RP62 A; assay: microbe, parasite or virus in culture; parameters: broth microdilution MIC, visible growth (turbidity or pellet); settings: Staphylococcus epidermidis, RP62A, 20 h
# T15 construct: RP62A
# Experimental: as §3
# S. aureus NCTC 8325 = test system: T16, S. aureus NCTC 8325; assay: microbe, parasite or virus in culture; parameters: broth microdilution MIC, visible growth (turbidity or pellet); settings: Staphylococcus aureus, NCTC8325, 20 h
# T16 construct: NCTC 8325
# Experimental: as §3
# A. baumannii 5075 = test system: T17, A. baumannii 5075; assay: microbe, parasite or virus in culture; parameters: broth microdilution MIC, visible growth (turbidity or pellet); settings: Acinetobacter baumannii, 5075, 20 h
# T17 construct: AB5075
# Experimental: as §3
# S. pyogenes ATCC 700294 = test system: T18, S. pyogenes ATCC 700294; assay: microbe, parasite or virus in culture; parameters: broth microdilution MIC, visible growth (turbidity or pellet); settings: Streptococcus pyogenes, ATCC700294, 20 h
# T18 construct: ATCC 700294
# Experimental: as §3
# S. typhimurium LT2 = test system: T19, S. typhimurium LT2; assay: microbe, parasite or virus in culture; parameters: broth microdilution MIC, visible growth (turbidity or pellet); settings: Salmonella enterica, TYPHIMURIUM, 20 h
# T19 construct: LT2
# Experimental: as §3
# E. coli K12 [11] = test system: T2, E. coli K12; assay: microbe, parasite or virus in culture; parameters: broth microdilution MIC, visible growth (turbidity or pellet); settings: Escherichia coli, K12, 20 h; remark: listed apart in the source
# Experimental: as §3
# E. faecalis V583 = test system: T20, E. faecalis V583; assay: microbe, parasite or virus in culture; parameters: broth microdilution MIC, visible growth (turbidity or pellet); settings: Enterococcus faecalis, V583, 20 h
# T20 construct: V583
# Experimental: as §3
# A. baumannii ATCC 19606 = test system: T21, A. baumannii ATCC 19606; assay: microbe, parasite or virus in culture; parameters: broth microdilution MIC, visible growth (turbidity or pellet); settings: Acinetobacter baumannii, ATCC19606, 20 h
# T21 construct: ATCC 19606
# Experimental: as §3
# L. monocytogenes EGD-e = test system: T22, L. monocytogenes EGD-e; assay: microbe, parasite or virus in culture; parameters: broth microdilution MIC, visible growth (turbidity or pellet); settings: Listeria monocytogenes, 20 h
# T22 construct: EGD-e
# Experimental: as §3
# cytochrome P450 2D6 [12] = molecular target: T6, cytochrome P450 2D6; assay: CYP inhibition assay (Table S3); type: biochemical
# T7 sequence (P11712 whole entry, canonical isoform): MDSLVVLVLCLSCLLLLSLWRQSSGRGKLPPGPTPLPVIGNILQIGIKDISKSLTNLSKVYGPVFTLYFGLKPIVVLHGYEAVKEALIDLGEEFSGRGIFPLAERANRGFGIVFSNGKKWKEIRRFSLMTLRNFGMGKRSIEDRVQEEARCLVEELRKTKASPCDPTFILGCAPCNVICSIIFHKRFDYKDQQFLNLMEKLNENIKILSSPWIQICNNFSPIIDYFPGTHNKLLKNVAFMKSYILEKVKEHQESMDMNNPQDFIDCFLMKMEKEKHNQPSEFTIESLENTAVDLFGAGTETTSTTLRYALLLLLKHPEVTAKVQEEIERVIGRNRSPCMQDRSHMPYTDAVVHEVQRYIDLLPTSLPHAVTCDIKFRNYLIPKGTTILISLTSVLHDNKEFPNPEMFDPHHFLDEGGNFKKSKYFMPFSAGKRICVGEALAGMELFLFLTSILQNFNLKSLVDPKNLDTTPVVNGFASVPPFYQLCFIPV
# T4 sequence (P08684 2-503): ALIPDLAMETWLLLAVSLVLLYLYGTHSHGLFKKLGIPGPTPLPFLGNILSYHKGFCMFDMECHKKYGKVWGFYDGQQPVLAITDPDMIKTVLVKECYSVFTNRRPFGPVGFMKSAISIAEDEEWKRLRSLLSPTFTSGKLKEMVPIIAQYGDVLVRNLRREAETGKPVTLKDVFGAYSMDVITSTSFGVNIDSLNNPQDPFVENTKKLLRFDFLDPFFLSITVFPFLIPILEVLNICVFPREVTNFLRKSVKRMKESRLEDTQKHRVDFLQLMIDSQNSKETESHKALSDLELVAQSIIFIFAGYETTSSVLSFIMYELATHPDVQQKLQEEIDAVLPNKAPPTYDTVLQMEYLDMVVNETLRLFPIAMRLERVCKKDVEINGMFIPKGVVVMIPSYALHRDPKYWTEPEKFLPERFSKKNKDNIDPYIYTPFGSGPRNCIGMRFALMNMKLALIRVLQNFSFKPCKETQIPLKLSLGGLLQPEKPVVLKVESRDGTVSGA
# T5 sequence (P05177 2-516): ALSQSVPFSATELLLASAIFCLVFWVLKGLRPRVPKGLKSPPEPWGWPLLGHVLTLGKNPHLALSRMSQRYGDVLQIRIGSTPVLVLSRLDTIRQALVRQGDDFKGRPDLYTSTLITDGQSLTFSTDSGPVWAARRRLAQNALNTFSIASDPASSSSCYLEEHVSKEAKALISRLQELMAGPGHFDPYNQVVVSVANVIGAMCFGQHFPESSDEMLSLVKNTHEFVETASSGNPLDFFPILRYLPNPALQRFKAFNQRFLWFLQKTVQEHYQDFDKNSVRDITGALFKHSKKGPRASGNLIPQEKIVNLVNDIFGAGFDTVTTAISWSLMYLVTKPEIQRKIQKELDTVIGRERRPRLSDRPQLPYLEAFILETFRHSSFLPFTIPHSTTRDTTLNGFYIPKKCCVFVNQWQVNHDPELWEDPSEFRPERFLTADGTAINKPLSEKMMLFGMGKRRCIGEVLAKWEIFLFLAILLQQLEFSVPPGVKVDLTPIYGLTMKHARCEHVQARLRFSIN
# T1 sequence (Q2FWA0 entry or part of it): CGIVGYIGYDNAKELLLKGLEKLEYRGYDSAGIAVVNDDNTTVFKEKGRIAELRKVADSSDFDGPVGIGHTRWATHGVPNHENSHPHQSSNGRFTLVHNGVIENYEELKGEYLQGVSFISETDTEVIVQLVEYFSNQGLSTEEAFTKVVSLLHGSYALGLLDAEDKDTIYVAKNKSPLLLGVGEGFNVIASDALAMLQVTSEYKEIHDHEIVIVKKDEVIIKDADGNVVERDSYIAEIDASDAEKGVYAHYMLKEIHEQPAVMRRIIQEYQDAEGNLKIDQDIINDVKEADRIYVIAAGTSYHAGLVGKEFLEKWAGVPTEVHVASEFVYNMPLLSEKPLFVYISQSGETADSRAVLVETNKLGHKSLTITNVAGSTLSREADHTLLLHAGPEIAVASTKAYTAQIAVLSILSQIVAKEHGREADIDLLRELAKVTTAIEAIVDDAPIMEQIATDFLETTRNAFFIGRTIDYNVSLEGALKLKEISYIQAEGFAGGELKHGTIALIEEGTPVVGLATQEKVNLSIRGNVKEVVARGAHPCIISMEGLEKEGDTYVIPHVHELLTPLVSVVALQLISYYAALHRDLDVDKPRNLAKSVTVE
# T6 sequence (P10635 whole entry, canonical isoform): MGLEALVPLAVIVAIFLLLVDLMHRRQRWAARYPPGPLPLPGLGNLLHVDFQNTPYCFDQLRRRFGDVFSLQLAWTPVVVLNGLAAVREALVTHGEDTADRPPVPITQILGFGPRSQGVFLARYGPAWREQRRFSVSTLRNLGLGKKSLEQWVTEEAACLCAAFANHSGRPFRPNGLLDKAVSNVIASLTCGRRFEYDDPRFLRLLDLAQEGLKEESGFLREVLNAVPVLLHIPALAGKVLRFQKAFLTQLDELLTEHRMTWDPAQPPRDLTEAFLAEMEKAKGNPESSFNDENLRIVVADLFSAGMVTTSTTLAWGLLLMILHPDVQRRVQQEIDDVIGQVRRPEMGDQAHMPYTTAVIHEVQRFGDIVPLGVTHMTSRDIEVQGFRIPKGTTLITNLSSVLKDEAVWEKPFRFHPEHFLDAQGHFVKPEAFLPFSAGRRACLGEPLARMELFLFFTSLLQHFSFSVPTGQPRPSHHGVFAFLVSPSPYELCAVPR
compound,measurement,setting,value
"NC(=O)CI [IA, iodoacetamide]",remaining activity at 100 µM,[1],~35%
[C-]#[N+]C(c1ccc(F)cc1Cl)S(=O)(=O)c1ccc(C)cc1 (stereo not shown) [I16],MIC,E. coli K12 [2],> 50 µM
same,MIC,S. aureus USA300 Lac,1.56 µM
same,CYP inhibition assay (Table S3),cytochrome P450 3A4 [3],"I16 inhibited all tested CYP isoforms (2C9, 2D6, 1A2, and 3A4) at nanomolar concentrations"
same,IC50,cytochrome P450 1A2 [4],60.8 ± 17 nM
same,IC50,cytochrome P450 2D6 [5],59.3 ± 20 nM
same,IC50,cytochrome P450 3A4 [6],26.1 ± 8 nM
same,IC50,cytochrome P450 2C9 [7],144 ± 53 nM
same,CYP inhibition assay (Table S3),cytochrome P450 2C9 [8],"I16 inhibited all tested CYP isoforms (2C9, 2D6, 1A2, and 3A4) at nanomolar concentrations"
same,"GDH-coupled glutaminase assay; intact protein MS (+27.5 Da, truncated adduct); c",[9],"glutamate release rate decreased concentration-dependently by I16, corroborating its interaction with the active site cysteine"
same,CYP inhibition assay (Table S3),cytochrome P450 1A2 [10],"I16 inhibited all tested CYP isoforms (2C9, 2D6, 1A2, and 3A4) at nanomolar concentrations"
same,MIC,B. subtilis 168,12.5 µM
same,MIC,P. aeruginosa PAO1,> 100 µM
same,MIC,S. aureus USA300 LAC J2,1.56 µM
same,MIC,E. coli UTI89,> 100 µM
same,MIC,S. pneumoniae DSM 20567,1.56 µM
same,MIC,K. pneumoniae DSM 30104,> 100 µM
same,MIC,E. faecium DSM17050,> 100 µM
same,MIC,S. epidermidis RP62 A,1 µM
same,MIC,S. aureus NCTC 8325,0.78 to 1.56 µM
same,MIC,A. baumannii 5075,> 100 µM
same,MIC,S. pyogenes ATCC 700294,> 100 µM
same,MIC,S. typhimurium LT2,> 100 µM
same,MIC,E. coli K12 [11],> 100 µM
same,MIC,E. faecalis V583,> 100 µM
same,MIC,A. baumannii ATCC 19606,> 100 µM
same,MIC,L. monocytogenes EGD-e,1 µM
same,CYP inhibition assay (Table S3),cytochrome P450 2D6 [12],"I16 inhibited all tested CYP isoforms (2C9, 2D6, 1A2, and 3A4) at nanomolar concentrations"
